In patent EP4663204A1, “COMPOUNDS USEFUL FOR THE MODULATION OF THE ACTIVITY OF STING” (Sulis Therapeutics ApS, priority 2024, dated 2025):
“And” between values parts separate entries of the source, which are not always exact repeats. Equal values may be shown once. “Also recorded” adds a separate entry of the source.

How the values were obtained:
Assay type in all cases: cell-based
Design in all cases: To assess STING degradation and recovery in human foreskin fibroblasts HFF-1 cells; host or cells: HFF-1 human foreskin fibroblasts
STING [1] = molecular target: T1, STING (Homo sapiens, UniProt Q86WV6); assay: Western Blot of diABZI-induced STING activation in primary human skin fibroblasts (Figure 9); settings: 5 µM; for LC3B lipidation / P-TBK1: 0.3 µM diABZI; for P-TBK1 / P-STING: versus diABZI c3 only; for P-STING: before (-2h, -1h), simultaneously with, or 15 minutes after 0.3 µM diABZI
Method: (§1) To assess whether S1 STING ligands inhibit STING activation, primary human skin fibroblasts (Figure 9) or HFF-1 cells (Figure 10) were treated with various compounds which comprise only an S1 ligand domain and a Linker domain before undergoing Western Blot analysis as described below.
(§2) Cell culture methods as described above for primary human skin fibroblast and HFF-1 cells were used in the current experiments. Methods as described above for H596, H1650 and HaCat cells were applied for cell lysis and western blotting.
Cells were incubated with A9 or A11 for 1 or 2 hours before addition of diABZI c3, treated with test compound and diABZI c3 simultaneously, or treated with A9 or A11 after 15 minutes incubation with diABZI c3. As a control, cells were also treated with diABZI c3 alone.

STING [2] = molecular target: T1, STING; assay: Inhibition of STING-agonist-induced IFN-β and CXCL10 release (Figure 11); settings: for IFN media concentration: Figure 11A; for secretion of Functional Type I IFN / secretion of CXCL10: human skin fibroblasts, 5 µM, 0.3 µM diABZI; for secretion of Functional Type I IFN: Figure 11 (A); for secretion of CXCL10: Figure 11 (B); for CXCL10 media concentration: Figure 11B
Method: HFF-1 cells were assessed for inhibition of STING-agonist-induced IFN-β and CXCL10 release in cells treated with Compounds A9 and A11.
HFF-1 cells were cultured as described in Example 7 above except that cells were seeded in a 24-well plate at 30,000 cells/well. […]

STING [3] = molecular target: T1, STING; assay: Western Blot of diABZI-induced STING activation in HFF-1 cells (Figure 10A); settings: 5 µM for 15 min, then 300 nM diABZI for 2 h or 5 h, versus diABZI c3 alone
Method: as §1, §2
In Figure 10A, HFF-1 cells were treated with 5 µM of compounds A11, A25, A26, or A30, or 0.5 µM STING antagonist control for 15 min followed prior to addition of 300 nM diABZI and incubation for 2 h or 5 h. The cells were lysed and analysed on WB. As additional controls, cells were left untreated (UT), treated with Lipofectamine (Lipo control) or with compounds A26 or A30 as single agent. […]

STING [4] = molecular target: T1, STING; assay: Western Blot of cGAMP-induced STING activation in HFF-1 cells (Figure 10B); settings: 5 µM for 15 min, then 8 µg/mL cGAMP for 2 h or 5 h, versus cGAMP alone
Method: as §1, §2
(§3) In Figure 10B, similar experiments were performed as for Figure 10A, except that cells were activated with 8 µg/mL cGAMP instead of diABZI c3. In addition, the controls used in this set of experiments was A11, A25, A26 and A30 as a single agent with no cGAMP activation.

STING [5] = molecular target: T1, STING; assay: Western Blot of STING agonist activity of compounds as single agent in HFF-1 cells; settings: compound as single agent, no activation
Method: S1 is a STING ligand. […] Any standard method known in the art may be used to determine STING agonist activity. For example, STING agonist activity (or lack thereof) can be measured as described in Examples 11 and/or Example 12. For example, following the method described in Example 11, cells may be incubated with a compound comprising a S1 STING ligand. The cells may be lysed and Western Blotting performed. Western blots may be probed for phospho-STING and/or phospho-TBK1. Cells incubated with STING ligands which are not agonists will not result in detectable phospho-STING or phospho-TBK1 using the methods outlined above and in Examples 11. In another example, following the method described in Example 12, human skin fibroblasts may be pretreated for 2hours with a serial dilution of a test compounds, for example a compound comprising an S1 ligand, prior to stimulation with a STING agonist (e.g. 300 nM GSK STING agonist). Supernatants may then be harvested after STING agonist stimulation (e.g. after 20 h stimulation). IFN-a/b may be measured in the supernatants using HEK-Blue IFN-α/β bioassay (Invivogen) to determine a half-maximal inhibitory concentration of a test compound.
as §1, §2
In Figure 10A, HFF-1 cells were treated with 5 µM of compounds A11, A25, A26, or A30, or 0.5 µM STING antagonist control for 15 min followed prior to addition of 300 nM diABZI and incubation for 2 h or 5 h. The cells were lysed and analysed on WB. As additional controls, cells were left untreated (UT), treated with Lipofectamine (Lipo control) or with compounds A26 or A30 as single agent. The WB membrane was probed for p-STING, STING, p-IRF3, p-TBK1, and Vinculin.
as §3

[6] = 5 µM compound 1 to 2 hours before, simultaneously with, or 15 minutes after 0.3 µM diABZI c3

T1 sequence (Q86WV6 whole entry, the tested form may be a part): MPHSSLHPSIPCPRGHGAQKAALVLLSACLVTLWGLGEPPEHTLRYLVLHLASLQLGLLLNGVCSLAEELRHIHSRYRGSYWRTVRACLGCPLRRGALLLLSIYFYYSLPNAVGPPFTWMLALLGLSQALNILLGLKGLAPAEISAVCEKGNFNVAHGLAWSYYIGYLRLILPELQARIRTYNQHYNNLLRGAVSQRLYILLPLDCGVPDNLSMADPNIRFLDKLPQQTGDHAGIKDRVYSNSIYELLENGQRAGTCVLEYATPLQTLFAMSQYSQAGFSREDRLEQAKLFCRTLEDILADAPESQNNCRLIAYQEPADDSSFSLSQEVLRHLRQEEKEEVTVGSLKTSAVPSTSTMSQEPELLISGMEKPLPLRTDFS

Row | Structure (SMILES) | P-TBK1 (STING [1]) | IFN media concentration (STING [2]; [6]) | secretion of Functional Type I IFN (STING [2]) | secretion of CXCL10 (STING [2]) | CXCL10 media concentration (STING [2]; 5 µM compound before, simultaneously with, or after diABZI c3, filled bars) | CXCL10 media concentration (STING [2]; cells treated with diABZI c3 alone) | IFN media concentration (STING [2]; cells treated with only diABZI c3) | LC3B lipidation (STING [1]) | P-STING (STING [1]) | STING, TBK1 and IRF3 phosphorylation (STING [3]) | STING, TBK1 and IRF1 phosphorylation (STING [4]) | phosphorylation of STING, IRF1 or TBK1 (STING [5])
1 | CCn1nc(C)cc1C(=O)N=c1n(C)c2cc(C(N)=O)ccc2n1CCC(CCn1c(=NC(=O)c2cc(C)nn2CC)n(C)c2cc(C(N)=O)ccc21)OCC(=O)N1CCC[C@H]1c1ccccc1 (stereo partly drawn) [A25, 1-(3-{2-[(S)-2-Phenyl-1-pyrrolidinyl]-2-oxoethoxy}-5-{5-carbamoyl-2-[(1-ethyl-3-methyl-5-pyrazolyl)carbonylimino]-3-methyl-2,3-dihydro-1H-1,3-benzimidazol-1-yl}pentyl)-2-[(1-ethyl-3-methyl-5-pyrazolyl)carbonylimino]-3-methyl-2,3-dihydro-1H-1,3-benzimidazole-5-carboxamide] |  |  |  |  |  |  |  |  |  | lower | lower | do not induce STING, IRF3 or TBK1 phosphorylation and activation alone
2 | CCn1nc(C)cc1C(=O)N=c1n(C)c2cc(C(N)=O)ccc2n1CCC(CCn1c(=NC(=O)c2cc(C)nn2CC)n(C)c2cc(C(N)=O)ccc21)OCC(=O)N1CCC[C@H]1C(=O)N1CCc2cc(OC)ccc2C1 (stereo partly drawn) [A26, 1-[3-(2-{(S)-2-[(6-Methoxy-1,2,3,4-tetrahydro-2-isoquinolyl)carbonyl]-1-pyrrolidinyl}-2-oxoethoxy)-5-{5-carbamoyl-2-[(1-ethyl-3-methyl-5-pyrazolyl)carbonylimino]-3-methyl-2,3-dihydro-1H-1,3-benzimidazol-1-yl}pentyl]-2-[(1-ethyl-3-methyl-5-pyrazolyl)carbonylimino]-3-methyl-2,3-dihydro-1H-1,3-benzimidazole-5-carboxamide] |  |  |  |  |  |  |  |  |  | lower; also recorded: inhibited STING, IRF3 and TBK1 phosphorylation and activation | lower; also recorded: inhibited STING, IRF3 and TBK1 phosphorylation and activation | do not induce STING, IRF3 or TBK1 phosphorylation and activation alone
3 | CCn1nc(C)cc1C(=O)N=c1n(C)c2cc(C(N)=O)ccc2n1CCC(CCn1c(=NC(=O)c2cc(C)nn2CC)n(C)c2cc(C(N)=O)ccc21)OCC(=O)N1CCOC[C@@H]1c1ccccc1 (stereo partly drawn) [A30, 1-(3-{2-[(S)-3-Phenyl-4-morpholinyl]-2-oxoethoxy}-5-{5-carbamoyl-2-[(1-ethyl-3-methyl-5-pyrazolyl)carbonylimino]-3-methyl-2,3-dihydro-1H-1,3-benzimidazol-1-yl}pentyl)-2-[(1-ethyl-3-methyl-5-pyrazolyl)carbonylimino]-3-methyl-2,3-dihydro-1H-1,3-benzimidazole-5-carboxamide] |  |  |  |  |  |  |  |  |  | lower; also recorded: inhibited STING, IRF3 and TBK1 phosphorylation and activation | lower; also recorded: inhibited STING, IRF3 and TBK1 phosphorylation and activation | do not induce STING, IRF3 or TBK1 phosphorylation and activation alone

Continued, in another order:

Row | P-TBK1 (STING [1]) | IFN media concentration (STING [2]; [6]) | secretion of Functional Type I IFN (STING [2]) | secretion of CXCL10 (STING [2]) | CXCL10 media concentration (STING [2]; 5 µM compound before, simultaneously with, or after diABZI c3, filled bars) | CXCL10 media concentration (STING [2]; cells treated with diABZI c3 alone) | IFN media concentration (STING [2]; cells treated with only diABZI c3) | Structure (SMILES) | LC3B lipidation (STING [1]) | P-STING (STING [1]) | STING, TBK1 and IRF3 phosphorylation (STING [3]) | STING, TBK1 and IRF1 phosphorylation (STING [4]) | phosphorylation of STING, IRF1 or TBK1 (STING [5])
4 | reduced P-TBK1 intensity | ~ 100 U/mL | inhibits secretion | inhibits secretion |  |  |  | CCn1nc(C)cc1C(=O)N=c1n(C)c2cc(C(N)=O)ccc2n1CCC(CCn1c(=NC(=O)c2cc(C)nn2CC)n(C)c2cc(C(N)=O)ccc21)OCC(=O)N1CCc2cc(OC)ccc2C1 (stereo not drawn) [A9, 1-(5-{5-Carbamoyl-2-[(1-ethyl-3-methyl-5-pyrazolyl)carbonylimino]-3-methyl-2,3-dihydro-1H-1,3-benzimidazol-1-yl}-3-[2-(6-methoxy-1,2,3,4-tetrahydro-2-isoquinolyl)-2-oxoethoxy]pentyl)-2-[(1-ethyl-3-methyl-5-pyrazolyl)carbonylimino]-3-methyl-2,3-dihydro-1H-1 ,3-benzimidazole-5-carboxamide] | reduced LC3B lipidation; also recorded: decrease in LC3B lipidation | reduced intensity; also recorded: decrease in P-STING |  |  | 
5 | reduced P-TBK1 intensity | -10 - 20 U/mL | inhibits secretion | inhibits secretion | -10 to 20 pg/mL |  |  | CCn1nc(C)cc1C(=O)N=c1n(C)c2cc(C(N)=O)ccc2n1CCC(CCn1c(=NC(=O)c2cc(C)nn2CC)n(C)c2cc(C(N)=O)ccc21)OCC(=O)N1CCC[C@H]1c1cccc(OC)c1 (stereo partly drawn) [A11, 1-(3-{2-[(S)-2-(3-Methoxyphenyl)-1-pyrrolidinyl]-2-oxoethoxy}-5-{5-carbamoyl-2-[(1-ethyl-3-methyl-5-pyrazolyl)carbonylimino]-3-methyl-2,3-dihydro-1H-1,3-benzimidazol-1-yl}pentyl)-2-[(1-ethyl-3-methyl-5-pyrazolyl)carbonylimino]-3-methyl-2,3-dihydro-1H-1,3-benzimidazole-5-carboxamide] | reduced LC3B lipidation | reduced intensity; also recorded: decrease in P-STING | lower; also recorded: inhibited STING, IRF3 and TBK1 phosphorylation and activation | lower; also recorded: inhibited STING, IRF3 and TBK1 phosphorylation and activation | do not induce STING, IRF3 or TBK1 phosphorylation and activation alone
6 |  |  |  |  |  | ~ 60 pg/mL | ~ 200 U/mL and ~ 100 U/mL | CCn1nc(C)cc1C(=O)Nc1nc2cc(C(N)=O)cc(OC)c2n1C/C=C/Cn1c(NC(=O)c2cc(C)nn2CC)nc2cc(C(N)=O)cc(OCCCN3CCOCC3)c21 [diABZI c3, reference compound] |  |  |  |  | 
